Measurements reported in PubChem BioAssay AID2060493 (Molecular Pharmacology Branch, DTP, NCI, 2025).

Test system: 616215-338-R-J1-PDC tumor spheroids, viability
Experiment: Anticancer human tumor 616215-338-R-J1-PDC patient-derived colon adenocarcinoma cell line growth inhibition [GQUAD]
Settings: spheroids with HUVEC and MSC; for IC50: curve of first compound; for viability, T/C: stronger effect = lower value
Description: DNA G-quadruplex Stabilizer Agents in Combinations in Complex Spheroids
A high-throughput screen of multi-cell type tumor spheroids was designed to identify active combinations of DNA G-quadruplex stabilizer agents and targeted small molecules. Complex spheroids include a stromal component modeled by human endothelial cells (HUVEC) and fibroblasts modeled by human mesenchymal stem cells (MSCs). The concentration ranges selected for each drug and investigational agent were based upon clinically achievable concentrations if the clinical Cmax of the agent was known.
Compounds. The drugs and investigational agents: pidnarulex (CX-5461; NSC782164), APTO-253 (NSC789042), BRACO-19 (NSC847499), peposertib (NSC802822), ceralasertib (NSC780249), elimusertib (NSC800525), camonsertib (NSC841442), AZD-1390 (NSC803789), olaparib (NSC753686), talazoparib (NSC767125), ART-558 (NSC835418), sotorasib (NSC818433), MRTX-1133 (NSC836407), SN-38 (NSC673596), topotecan (NSC609699), etoposide (NSC141540), doxorubicin (NSC123127), gemcitabine (NSC613327), 5-fluorouracil (NSC19893), paclitaxel (NSC125973), vemurafenib (NSC761431), panobinostat (NSC761190), R-306465 (JNJ-16241199; NSC773264), adavosertib (NSC754352), TP-3654 (NSC805149), carboplatin (NSC241240), KSQ-4279 (NSC840948), and staurosporine (NSC755774) were obtained from the National Cancer Institute (NCI) Developmental Therapeutics Program Chemical Repository (34). The FDA-approved anticancer drug set is available from the NCI Developmental Therapeutics Program. […] The stock solutions were prepared in dimethyl sulfoxide (DMSO, Sigma-Aldrich, St. Louis, MO, cat. D2650) at 800-fold the tested concentration and stored at -70 degrees C prior to their use. All drugs and investigational agents were tested over a range starting from a high concentration at or near the clinical Cmax and decreasing in half-log increments. If the clinical Cmax for an agent had not been determined, the highest concentration tested was 10 microM.
2.3 Cell Culture. All cells were maintained in an incubator at 37 degrees C and 5% CO2 with 95% humidity. The PDC lines were cultured according to standard operating procedures established by the NCI PDMR. All PDCs were thawed and cultured in Matrigel-coated flasks prepared with a working solution of 1X Ham's F-12 nutrient mix, without supplementation (Invitrogen, cat. 11765054), 100 U/mL penicillin-streptomycin (Invitrogen, cat. 15140122), and 2.5% Matrigel (Corning Inc., cat. 354248) for the first three passages. The 857933-349-R-J2-PDC line was cultured in 6C/Colon 1B media, which includes advanced DMEM/F-12 (Thermo Fisher Scientific, cat. 12634028), 10 mM HEPES (Thermo Fisher Scientific, cat. 15630080), 1X GlutaMAX supplement (Thermo Fisher Scientific, cat. 35050061), 0.1 mg/mL primocin (InvivoGen, cat. ant-pm-2), 10% defined fetal bovine serum, heat inactivated (HyClone Laboratories Inc., cat. SH30070.03HI), 50% L-WRN conditioned media (ATCC, cat. CRL-3276), 1.25 mM N-Acetyl-L-cysteine (Sigma-Aldrich, cat. A9165), 10 mM nicotinamide (Sigma-Aldrich, cat. N0636), 1X B-27 supplement (Thermo Fisher Scientific, cat. 17504044), 1X N-2 supplement (Thermo Fisher Scientific, cat. 17502048), 10 microM Y-27632 dihydrochloride (Tocris Bioscience, cat. 1254), and 50 ng/mL human EGF recombinant protein (Thermo Fisher Scientific, cat. PHG0311). The 485176-168-R4-J1-PDC line was cultured in Panc media, which includes all 6C/Colon 1B media components plus 100 ng/mL human FGF-10 (Thermo Fisher Scientific, cat. 100-26), 500 nM SB-431542 (Selleckchem, cat. S1067), and gastrin (Tocris, cat. 3006).
[…]

[1] = second compound 0.0316 µM, first compound 0.0316 µM
[2] = second compound 0.0316 µM, first compound 0.1 µM
[3] = second compound 0.0316 µM, first compound 0.316 µM
[4] = second compound 0.0316 µM, first compound 1 µM
[5] = second compound 0.0316 µM, first compound 3.16 µM
[6] = second compound 0.0316 µM, first compound 10 µM
[7] = second compound 0.1 µM, first compound 0.0316 µM
[8] = second compound 0.1 µM, first compound 0.1 µM
[9] = second compound 0.1 µM, first compound 0.316 µM
[10] = second compound 0.1 µM, first compound 1 µM
[11] = second compound 0.1 µM, first compound 3.16 µM
[12] = second compound 0.1 µM, first compound 10 µM
[13] = second compound 0.316 µM, first compound 0.0316 µM
[14] = second compound 0.316 µM, first compound 0.1 µM
[15] = second compound 0.316 µM, first compound 0.316 µM
[16] = second compound 0.316 µM, first compound 1 µM
[17] = second compound 0.316 µM, first compound 3.16 µM
[18] = second compound 0.316 µM, first compound 10 µM
[19] = second compound 1 µM, first compound 0.0316 µM
[20] = second compound 1 µM, first compound 0.1 µM
[21] = second compound 1 µM, first compound 0.316 µM
[22] = second compound 1 µM, first compound 1 µM
[23] = second compound 1 µM, first compound 3.16 µM
[24] = second compound 1 µM, first compound 10 µM
[25] = second compound 3.16 µM, first compound 0.0316 µM
[26] = second compound 3.16 µM, first compound 0.1 µM
[27] = second compound 3.16 µM, first compound 0.316 µM
[28] = second compound 3.16 µM, first compound 1 µM
[29] = second compound 3.16 µM, first compound 3.16 µM
[30] = second compound 3.16 µM, first compound 10 µM
[31] = second compound 10 µM, first compound 0.0316 µM
[32] = second compound 10 µM, first compound 0.1 µM
[33] = second compound 10 µM, first compound 0.316 µM
[34] = second compound 10 µM, first compound 1 µM
[35] = second compound 10 µM, first compound 3.16 µM
[36] = second compound 10 µM, first compound 10 µM
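Also: spheroids exposed to agents for 7 days before readout.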
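For viability, T/C in this document: percent viability relative to DMSO vehicle control wells taken as 100%.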

For `COc1ncnc(C2CC2)c1-c1ncc2cnn(Cc3ccc(-c4nc(C(F)(F)F)cn4C(C)C)cc3)c2n1` + CN(C)c1ccc(Nc2c3ccc(NC(=O)CCN4CCCC4)cc3nc3cc(NC(=O)CCN4CCCC4)ccc23)cc1, the IC50 (second compound 0.0316 µM) was over 10 µM, the IC50 (second compound 0.1 µM) was over 10 µM and the IC50 (second compound 0.316 µM) was over 10 µM. For the same compound, the IC50 (second compound 1 µM) was over 10 µM, the IC50 (second compound 3.16 µM) was over 10 µM and the IC50 (second compound 10 µM) was 9.35 µM. The viability, T/C [1] was 114%, the viability, T/C [2] was 101% and the viability, T/C [3] was 105%. It also gave a viability, T/C [4] of 96.3%, a viability, T/C [5] of 109% and a viability, T/C [6] of 97.5%. It also gave a viability, T/C [7] of 102%, a viability, T/C [8] of 96.1% and a viability, T/C [9] of 100%. The viability, T/C [10] was 101%, the viability, T/C [11] was 114% and the viability, T/C [12] was 90.2%. For the same compound, the viability, T/C [13] was 106%, the viability, T/C [14] was 95.3% and the viability, T/C [15] was 96.9%. It also gave a viability, T/C [16] of 104%, a viability, T/C [17] of 101% and a viability, T/C [18] of 93.7%. For the same compound, the viability, T/C [19] was 101%, the viability, T/C [20] was 114% and the viability, T/C [21] was 105%. It also gave a viability, T/C [22] of 101%, a viability, T/C [23] of 101% and a viability, T/C [24] of 92.1%. The viability, T/C [25] was 96.4%, the viability, T/C [26] was 91.2% and the viability, T/C [27] was 91.4%. It also gave a viability, T/C [28] of 105%, a viability, T/C [29] of 93.2% and a viability, T/C [30] of 97.7%. For the same compound, the viability, T/C [31] was 91.7%, the viability, T/C [32] was 85.3% and the viability, T/C [33] was 97.3%. It also gave a viability, T/C [34] of 90.3%, a viability, T/C [35] of 86.2% and a viability, T/C [36] of 47.8%.

For `O=C(c1cc(Cc2n[nH]c(=O)c3ccccc23)ccc1F)N1CCN(C(=O)C2CC2)CC1` + Cc1[nH]c2ccc(F)cc2c1-c1nc2c3cccnc3c3ncccc3c2[nH]1, the IC50 (second compound 0.0316 µM) was over 10 µM, the IC50 (second compound 0.1 µM) was over 10 µM and the IC50 (second compound 0.316 µM) was over 10 µM. It also gave an IC50 (second compound 1 µM) of over 10 µM, an IC50 (second compound 3.16 µM) of over 10 µM and an IC50 (second compound 10 µM) of over 10 µM. The viability, T/C [1] was 99.5%, the viability, T/C [2] was 97% and the viability, T/C [3] was 107%. The viability, T/C [4] was 101%, the viability, T/C [5] was 98.6% and the viability, T/C [6] was 74.2%. For the same compound, the viability, T/C [7] was 102%, the viability, T/C [8] was 100% and the viability, T/C [9] was 93.8%. It also gave a viability, T/C [10] of 102%, a viability, T/C [11] of 105% and a viability, T/C [12] of 72.3%. The viability, T/C [13] was 93.9%, the viability, T/C [14] was 105% and the viability, T/C [15] was 98.9%. The viability, T/C [16] was 100%, the viability, T/C [17] was 104% and the viability, T/C [18] was 73.7%. It also gave a viability, T/C [19] of 98.8%, a viability, T/C [20] of 95.1% and a viability, T/C [21] of 104%. For the same compound, the viability, T/C [22] was 107%, the viability, T/C [23] was 85.9% and the viability, T/C [24] was 53.4%. For the same compound, the viability, T/C [25] was 99.5%, the viability, T/C [26] was 105% and the viability, T/C [27] was 95%. It also gave a viability, T/C [28] of 96.8%, a viability, T/C [29] of 110% and a viability, T/C [30] of 67.2%. It also gave a viability, T/C [31] of 96.5%, a viability, T/C [32] of 87.6% and a viability, T/C [33] of 98.2%. It also gave a viability, T/C [34] of 84.3%, a viability, T/C [35] of 91.3% and a viability, T/C [36] of 52%.
